Data: PMC5433425 (PeerJ, 2017)
Values joined by “and” are separate entries in the source; they are usually repeats but may differ in a detail not shown here. Equal values may be shown once. Peptide text beside a SMILES is read from it. * marks the point of attachment. βNA = c1ccc2cc(N*)ccc2c1

Columns and labels:
E. coli AG100 = assay: EtBr efflux by real-time fluorometry; settings: for EtBr fluorescence (Channel Cycling A.530/585hp): 80 µM
[1] = test system: E. coli K-12 AG100 (wild-type); assay: MIC, broth microdilution; type: cell-based; settings: Escherichia coli

**Q.** For `NC(N)=NCCC[C@H](NC(=O)[C@@H](N)Cc1ccccc1)C(=O)Nc1ccc2ccccc2c1` [PAβN] (H-Phe-Arg-βNA), which “inhibition of EtBr efflux” value (E. coli AG100; AG100, AG100A and AG100tet (Fig. 2), 80 μM (20 μM for AG100A), glucose, 37 °C) is on record?
**A.** to a lesser extent

**Q.** What about the “EtBr fluorescence (Channel Cycling A.530/585hp)” value (from here on “EtBr fluorescence”) (E. coli AG100; cycle 1, + glucose) of the same molecule?
**A.** 2.175

**Q.** What about the “EtBr fluorescence” value (E. coli AG100; cycle 1, without glucose) of the same molecule?
**A.** 1.796

**Q.** What about the “EtBr fluorescence” value (E. coli AG100; cycle 2, + glucose) of the same molecule?
**A.** 1.889

**Q.** What about the “EtBr fluorescence” value (E. coli AG100; cycle 2, without glucose) of the same molecule?
**A.** 1.72

**Q.** And the “EtBr fluorescence” value (E. coli AG100; cycle 3, + glucose)?
**A.** 1.756

**Q.** What about the “EtBr fluorescence” value (E. coli AG100; cycle 3, without glucose) of the same molecule?
**A.** 1.635

**Q.** And the “EtBr fluorescence” value (E. coli AG100; cycle 4, without glucose)?
**A.** 1.556

**Q.** And the “EtBr fluorescence” value (E. coli AG100; cycle 5, without glucose)?
**A.** 1.502

**Q.** What about the “EtBr fluorescence” value (E. coli AG100; cycle 6, without glucose) of the same molecule?
**A.** 1.4519

**Q.** And the “EtBr fluorescence” value (E. coli AG100; cycle 7, without glucose)?
**A.** 1.472

**Q.** And the “EtBr fluorescence” value (E. coli AG100; cycle 8, without glucose)?
**A.** 1.378

**Q.** What about the “EtBr fluorescence” value (E. coli AG100; cycle 9, + glucose) of the same molecule?
**A.** 1.339

**Q.** What about the “EtBr fluorescence” value (E. coli AG100; cycle 9, without glucose) of the same molecule?
**A.** 1.359

**Q.** And the “EtBr fluorescence” value (E. coli AG100; cycle 10, + glucose)?
**A.** 1.264

**Q.** And the “EtBr fluorescence” value (E. coli AG100; cycle 10, without glucose)?
**A.** 1.368

**Q.** What about the “EtBr fluorescence” value (E. coli AG100; cycle 11, + glucose) of the same molecule?
**A.** 1.2447

**Q.** And the “EtBr fluorescence” value (E. coli AG100; cycle 11, without glucose)?
**A.** 1.355

**Q.** What about the “EtBr fluorescence” value (E. coli AG100; cycle 12, + glucose) of the same molecule?
**A.** 1.251

**Q.** And the “EtBr fluorescence” value (E. coli AG100; cycle 12, without glucose)?
**A.** 1.312

**Q.** And the “EtBr fluorescence” value (E. coli AG100; cycle 13, + glucose)?
**A.** 1.259

**Q.** And the “EtBr fluorescence” value (E. coli AG100; cycle 13, without glucose)?
**A.** 1.3469

**Q.** What about the “EtBr fluorescence” value (E. coli AG100; cycle 14, + glucose) of the same molecule?
**A.** 1.222

**Q.** And the “EtBr fluorescence” value (E. coli AG100; cycle 14, without glucose)?
**A.** 1.257

**Q.** And the “EtBr fluorescence” value (E. coli AG100; cycle 15, + glucose)?
**A.** 1.22

**Q.** What about the “EtBr fluorescence” value (E. coli AG100; cycle 15, without glucose) of the same molecule?
**A.** 1.235

**Q.** And the “EtBr fluorescence” value (E. coli AG100; cycle 16, + glucose)?
**A.** 1.167

**Q.** What about the “EtBr fluorescence” value (E. coli AG100; cycle 16, without glucose) of the same molecule?
**A.** 1.232

**Q.** What about the “EtBr fluorescence” value (E. coli AG100; cycle 17, + glucose) of the same molecule?
**A.** 1.194

**Q.** What about the “EtBr fluorescence” value (E. coli AG100; cycle 17, without glucose) of the same molecule?
**A.** 1.242

**Q.** And the “EtBr fluorescence” value (E. coli AG100; cycle 18, + glucose)?
**A.** 1.167

**Q.** What about the “EtBr fluorescence” value (E. coli AG100; cycle 18, without glucose) of the same molecule?
**A.** 1.283

**Q.** And the “EtBr fluorescence” value (E. coli AG100; cycle 19, + glucose)?
**A.** 1.179

**Q.** And the “EtBr fluorescence” value (E. coli AG100; cycle 19, without glucose)?
**A.** 1.241

**Q.** And the “EtBr fluorescence” value (E. coli AG100; cycle 20, + glucose)?
**A.** 1.201

**Q.** What about the “EtBr fluorescence” value (E. coli AG100; cycle 20, without glucose) of the same molecule?
**A.** 1.199

**Q.** What about the “EtBr fluorescence” value (E. coli AG100; cycle 21, + glucose) of the same molecule?
**A.** 1.201

**Q.** What about the “EtBr fluorescence” value (E. coli AG100; cycle 21, without glucose) of the same molecule?
**A.** 1.185

**Q.** What about the “EtBr fluorescence” value (E. coli AG100; cycle 22, + glucose) of the same molecule?
**A.** 1.145

**Q.** What about the “EtBr fluorescence” value (E. coli AG100; cycle 22, without glucose) of the same molecule?
**A.** 1.19

**Q.** And the “EtBr fluorescence” value (E. coli AG100; cycle 23, + glucose)?
**A.** 1.181

**Q.** And the “EtBr fluorescence” value (E. coli AG100; cycle 23, without glucose)?
**A.** 1.1696

**Q.** And the “EtBr fluorescence” value (E. coli AG100; cycle 24, + glucose)?
**A.** 1.1726

**Q.** And the “EtBr fluorescence” value (E. coli AG100; cycle 24, without glucose)?
**A.** 1.092

**Q.** What about the “EtBr fluorescence” value (E. coli AG100; cycle 25, + glucose) of the same molecule?
**A.** 1.158

**Q.** And the “EtBr fluorescence” value (E. coli AG100; cycle 25, without glucose)?
**A.** 1.1723

**Q.** And the “EtBr fluorescence” value (E. coli AG100; cycle 26, + glucose)?
**A.** 1.17

**Q.** What about the “EtBr fluorescence” value (E. coli AG100; cycle 26, without glucose) of the same molecule?
**A.** 1.164

**Q.** And the “EtBr fluorescence” value (E. coli AG100; cycle 27, + glucose)?
**A.** 1.169

**Q.** And the “EtBr fluorescence” value (E. coli AG100; cycle 27, without glucose)?
**A.** 1.126

**Q.** And the “EtBr fluorescence” value (E. coli AG100; cycle 28, + glucose)?
**A.** 1.177

**Q.** And the “EtBr fluorescence” value (E. coli AG100; cycle 28, without glucose)?
**A.** 1.147

**Q.** What about the “EtBr fluorescence” value (E. coli AG100; cycle 29, + glucose) of the same molecule?
**A.** 1.1781

**Q.** What about the “EtBr fluorescence” value (E. coli AG100; cycle 29, without glucose) of the same molecule?
**A.** 1.123

**Q.** And the “EtBr fluorescence” value (E. coli AG100; cycle 30, + glucose)?
**A.** 1.125

**Q.** What about the “EtBr fluorescence” value (E. coli AG100; cycle 30, without glucose) of the same molecule?
**A.** 1.105

**Q.** And the “EtBr fluorescence” value (E. coli AG100; cycle 31, + glucose)?
**A.** 1.166

**Q.** And the “EtBr fluorescence” value (E. coli AG100; cycle 31, without glucose)?
**A.** 1.145

**Q.** And the “EtBr fluorescence” value (E. coli AG100; cycle 32, + glucose)?
**A.** 1.148

**Q.** And the “EtBr fluorescence” value (E. coli AG100; cycle 32, without glucose)?
**A.** 1.083

**Q.** What about the “EtBr fluorescence” value (E. coli AG100; cycle 33, + glucose) of the same molecule?
**A.** 1.1593

**Q.** What about the “EtBr fluorescence” value (E. coli AG100; cycle 33, without glucose) of the same molecule?
**A.** 1.053

**Q.** What about the “EtBr fluorescence” value (E. coli AG100; cycle 34, + glucose) of the same molecule?
**A.** 1.173

**Q.** And the “EtBr fluorescence” value (E. coli AG100; cycle 34, without glucose)?
**A.** 1.055

**Q.** And the “EtBr fluorescence” value (E. coli AG100; cycle 35, + glucose)?
**A.** 1.1603

**Q.** And the “EtBr fluorescence” value (E. coli AG100; cycle 35, without glucose)?
**A.** 1.086

**Q.** What about the “EtBr fluorescence” value (E. coli AG100; cycle 36, + glucose) of the same molecule?
**A.** 1.157

**Q.** What about the “EtBr fluorescence” value (E. coli AG100; cycle 36, without glucose) of the same molecule?
**A.** 1.095

**Q.** And the “EtBr fluorescence” value (E. coli AG100; cycle 37, + glucose)?
**A.** 1.1393

**Q.** What about the “EtBr fluorescence” value (E. coli AG100; cycle 37, without glucose) of the same molecule?
**A.** 1.081

**Q.** What about the “EtBr fluorescence” value (E. coli AG100; cycle 38, + glucose) of the same molecule?
**A.** 1.174

**Q.** And the “EtBr fluorescence” value (E. coli AG100; cycle 38, without glucose)?
**A.** 1.066

**Q.** And the “EtBr fluorescence” value (E. coli AG100; cycle 39, + glucose)?
**A.** 1.096

**Q.** And the “EtBr fluorescence” value (E. coli AG100; cycle 39, without glucose)?
**A.** 1.058

**Q.** And the “EtBr fluorescence” value (E. coli AG100; cycle 40, + glucose)?
**A.** 1.115

**Q.** And the “EtBr fluorescence” value (E. coli AG100; cycle 40, without glucose)?
**A.** 1.043

**Q.** And the “EtBr fluorescence” value (E. coli AG100; cycle 41, + glucose)?
**A.** 1.134

**Q.** And the “EtBr fluorescence” value (E. coli AG100; cycle 41, without glucose)?
**A.** 1.067

**Q.** What about the “EtBr fluorescence” value (E. coli AG100; cycle 42, + glucose) of the same molecule?
**A.** 1.162

**Q.** And the “EtBr fluorescence” value (E. coli AG100; cycle 42, without glucose)?
**A.** 1.058

**Q.** And the “EtBr fluorescence” value (E. coli AG100; cycle 43, + glucose)?
**A.** 1.125

**Q.** And the “EtBr fluorescence” value (E. coli AG100; cycle 43, without glucose)?
**A.** 1.031

**Q.** What about the “EtBr fluorescence” value (E. coli AG100; cycle 44, + glucose) of the same molecule?
**A.** 1.108

**Q.** And the “EtBr fluorescence” value (E. coli AG100; cycle 44, without glucose)?
**A.** 1.002

**Q.** What about the “EtBr fluorescence” value (E. coli AG100; cycle 45, without glucose) of the same molecule?
**A.** 0.9943

**Q.** What about the “EtBr fluorescence” value (E. coli AG100; cycle 46, without glucose) of the same molecule?
**A.** 1.025

**Q.** What about the “EtBr fluorescence” value (E. coli AG100; cycle 47, without glucose) of the same molecule?
**A.** 1.03

**Q.** What about the “EtBr fluorescence” value (E. coli AG100; cycle 48, without glucose) of the same molecule?
**A.** 1.056

**Q.** And the “EtBr fluorescence” value (E. coli AG100; cycle 49, without glucose)?
**A.** 1.07

**Q.** And the “EtBr fluorescence” value (E. coli AG100; cycle 50, without glucose)?
**A.** 1.062

**Q.** What about the “EtBr fluorescence” value (E. coli AG100; cycle 51, without glucose) of the same molecule?
**A.** 1.026

**Q.** What about the “EtBr fluorescence” value (E. coli AG100; cycle 52, without glucose) of the same molecule?
**A.** 1.029

**Q.** And the “EtBr fluorescence” value (E. coli AG100; cycle 53, without glucose)?
**A.** 1.04

**Q.** What about the “EtBr fluorescence” value (E. coli AG100; cycle 54, without glucose) of the same molecule?
**A.** 1.019

**Q.** What about the “EtBr fluorescence” value (E. coli AG100; cycle 55, without glucose) of the same molecule?
**A.** 0.9589

**Q.** What about the “EtBr fluorescence” value (E. coli AG100; cycle 56, without glucose) of the same molecule?
**A.** 0.9927

**Q.** And the “EtBr fluorescence” value (E. coli AG100; cycle 57, without glucose)?
**A.** 1.017

**Q.** What about the “EtBr fluorescence” value (E. coli AG100; cycle 58, without glucose) of the same molecule?
**A.** 0.9905

**Q.** What about the “EtBr fluorescence” value (E. coli AG100; cycle 59, without glucose) of the same molecule?
**A.** 1.041

**Q.** And the “EtBr fluorescence” value (E. coli AG100; cycle 60, without glucose)?
**A.** 1.02

**Q.** And the “EtBr fluorescence” value (E. coli AG100; cycle 61, without glucose)?
**A.** 1.0374

**Q.** What about the MIC [1] of the same molecule?
**A.** > 200 µg/mL and > 385 µM
